# According to PubChem BioAssay (NCI):
#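 Cells were grown in 96-well plates and exposed to each compound for 48 hours at five concentrations; endpoints were interpolated linearly between bracketing concentrations, or set to the highest concentration if not reached. Here, GI50 denotes the concentration required for 50% inhibition of growth. Definition used: TGI = concentration required for complete inhibition of growth.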
# Columns and labels:
# Assay in all cases: DTP human tumour cell line panel, 48 h
# UACC-62 melanoma = tested on: UACC-62 melanoma
# SNB-19 CNS = tested on: SNB-19 CNS
# HS 578T breast = tested on: HS 578T breast
# SK-OV-3 ovarian = tested on: SK-OV-3 ovarian
# T-47D breast = tested on: T-47D breast
# NCI-H460 lung = tested on: NCI-H460 lung
# IGROV1 ovarian = tested on: IGROV1 ovarian
# NCI-H23 lung = tested on: NCI-H23 lung
# LXFL 529 NSCLC = tested on: LXFL 529 NSCLC
# DLD-1 colon = tested on: DLD-1 colon
SMILES,GI50 (UACC-62 melanoma) [µM],TGI (UACC-62 melanoma) [µM],GI50 (SNB-19 CNS) [µM],TGI (SNB-19 CNS) [µM],GI50 (HS 578T breast) [µM],TGI (HS 578T breast) [µM],GI50 (SK-OV-3 ovarian) [µM],TGI (SK-OV-3 ovarian) [µM],GI50 (T-47D breast) [µM],TGI (T-47D breast) [µM],GI50 (NCI-H460 lung) [µM],TGI (NCI-H460 lung) [µM],GI50 (IGROV1 ovarian) [µM],GI50 (NCI-H23 lung) [µM],TGI (NCI-H23 lung) [µM],TGI (LXFL 529 NSCLC) [µM],TGI (IGROV1 ovarian) [µM],TGI (DLD-1 colon) [µM],GI50 (LXFL 529 NSCLC) [µM]
CC(C)=CCC/C(C)=C/[C@H]1OC(=O)CC12C[C@H](O)C=CC2=O (stereo not given in full),1.34,2.68,1.36,2.64,1.81,5.02,1.44,3.19,0.194,0.692,0.692,2.21,1.65,0.308,1.04,,,,
O=c1cccccc1NCCNc1cccccc1=O,,> 100,,> 100,,,,> 100,,,,> 100,,,> 100,> 100,> 100,,
O=C(/C=C/c1ccccc1)CCc1c(O)c2ccccc2oc1=O,,> 100,,> 100,,> 100,,> 100,,> 100,,> 100,,,> 100,,> 100,,
N#CC1CCc2c(c(-c3cn[nH]c3C(F)(F)F)nc3c(F)cc4[nH]ncc4c23)C1 (stereo not given),3.43,11.5,5.53,61.5,3.16,11.5,3.21,10.5,3.06,26.1,11.8,38.8,2.46,5.36,28.4,,8.79,,
[N-]=[N+]=Nc1c(Br)c(=O)[nH]c(=O)n1COCCO,,> 100,,> 100,,,,,,,,> 100,,,> 100,> 100,> 100,> 100,
CCCCCCCCCCCCCCC(O)C1CCC(C(O)CCC(O)CCCCCC(O)CC2=CC(C)OC2=O)O1 (stereo not given),,13.3,,11.1,,,,15,,,,,,,12.1,13,18.6,11.9,
N#Cc1ncc(N2C(=O)C3(CCC3)N(c3ccc(OC4CCNCC4)nc3)C2=S)cc1C(F)(F)F,15.9,31.5,36.8,> 100,15.9,41.5,60.5,> 100,12.2,49.6,16.8,31.7,17.1,13.9,32.1,,36.3,,
COc1ccc(S(=O)(=O)n2c3ccccc3n3ncc(-c4nnc(C)o4)c23)cc1,0.609,32.5,0.766,> 100,0.394,> 100,0.598,> 100,0.584,62.4,0.425,> 48.3,0.634,0.786,75.8,,> 67.1,,
Cc1cc(Cl)ccc1NC(=O)CCCC(=O)C(C(=O)c1ccccc1)c1ccccc1 (stereo not given),,> 100,,,,,,> 100,,,,> 100,,,> 100,> 100,> 100,> 100,
CCN(CC)CCOc1nc2cc(OC)c(OC)cc2c2c1-c1ccc(OC)cc1C2=O,15.5,36.3,10.5,23.7,20.4,44.9,13.2,26,18.4,38.2,1.22,2.72,5.65,12.5,27.9,,20.6,,
Cc1cc(O)c2c(c1)C(=O)C(c1c(C)cc3c(c1O)C(=O)C1OC1C3=O)=CC2=O (stereo not given),,4.77,,> 50.7,,98.9,,38.7,,> 100,,25.8,,,22.8,,23.9,,
Cc1nn2c(/C=C3\C(=O)Nc4ccccc43)c(C)nc2s1,35.5,> 100,45.7,> 100,78,> 100,34.8,> 100,32,> 100,13.3,> 100,30.6,35.4,> 100,,> 100,,
CCC(=O)OC1=CN2C(=NC(c3ccc(N)cc3)=CC2c2cc(OC)c(OC)c(OC)c2)S1 (stereo not given),3.03,11.8,3.59,16.4,3.6,> 100,3.45,13,4.01,30.8,2.61,8.52,2.31,5.82,35.6,,6.63,,
N#Cc1ccc2c(c1)C(=O)c1c-2n(CCCN=[N+]=[N-])c(=O)c2cc([N+](=O)[O-])ccc12,3.6,> 50,33,> 50,> 50,> 50,> 50,> 50,8.63,> 50,1.11,> 50,12.4,49.5,> 50,,> 50,,
O=C(O)c1cc2c(c3ccsc13)-c1ccccc1CC2,33.9,> 100,47,> 100,30.5,88.9,85.1,> 100,44.7,> 100,33.2,> 100,33.9,30.1,79.5,,> 100,,
CCOC(=O)NC(=O)c1cn(C2OC(CO)C(O)C2O)c(=O)[nH]c1=O (stereo not given),,> 100,,> 100,,,,> 100,,,,> 100,,,,> 100,> 100,> 100,
CCC1(CC)C(=O)[N-]C(=O)[N-]C1=O.[Au+].[Au+].c1ccc([PH+](c2ccccc2)c2ccccc2)cc1.c1ccc([PH+](c2ccccc2)c2ccccc2)cc1,1.02,2.2,,,,,1.73,3.11,,,1.99,4.69,1.03,,,0.323,2.3,,0.153
Cc1cc(S(=O)(=O)Nc2nc3cc(-c4ccsc4)sc3c(=O)n2N)c(S)cc1Cl,24.8,72.2,86,> 100,35.7,> 100,88.6,> 100,28.8,> 100,31.4,> 100,> 100,> 100,> 100,,> 100,,
